The data set can be described thus: recombinant UMI read abundance after kanamycin selection (control-corrected) (log10(CPM+1)); higher = more efficient recombination; extreme values may be limits of the assay; sequences stand for … in AGTGCAGAGAAAATCGGCCAGTTTTCTCTGCCTGCAGTCCGCATGCCGTGGGACCCCTTGGGTTCTAACCTGTTGCCTAGATTTATGCAGCGGACTGCCTTTCTCCCAAAGTGATAAACCGG…AGGTTGGTTTCACT; site = the 11-nt donor. An outline of the steps: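 Pooled Escherichia coli screen of donor and donor-binding-loop pairs for the IS621 bridge recombinase. Each pair sits with a 12-nt UMI on a plasmid carrying a promoterless kanamycin gene. The library was co-electroporated with a target plasmid encoding a fixed target and T7-inducible recombinase, then plated with IPTG (0.07 mM) plus kanamycin, or unselected, each in two replicates. Recombinant UMIs were PCR-amplified across the donor–target junction and sequenced. Counts became CPM, averaged over replicates, scaled by control-derived factors and reported as log10(CPM+1).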
As for “CTCTACACATGGACCGGTTTTCCCGGTAATCCGTATTTGGT (site CTCTACACTAC)”, the “recombinant UMI read abundance (log10)” value came out at 0.0415.

“CTCTACACATGGACCGGTTTTCCCGGTAATCCGTATTTGGT (site CTCTACACTAG)”: the “recombinant UMI read abundance (log10)” value turned out to be 0.21.

Consider “CTCTACACATGGACCGGTTTTCCCGGTAATCCGTATTTGGT (site CTCTACACTAT)”, for which the “recombinant UMI read abundance (log10)” value came out at 0.203.

Take “CTCTAGTCATGGACCGGTTTTCCCGGTAATCCGTATTTGTG (site CTCTAGTCTCA)”: the “recombinant UMI read abundance (log10)” value was 1.99.

With “CTCTTCACATGGACCGGTTTTCCCGGTAATCCGTATTTGCT (site CTCTACACTAG)”, the “recombinant UMI read abundance (log10)” value turned out to be 1.29.

As to “CTCTTCACATGGACCGGTTTTCCCGGTAATCCGTATTTGCT (site CTCTCCACTAG)”, the “recombinant UMI read abundance (log10)” value was 1.14.

As to “CTCTTCACATGGACCGGTTTTCCCGGTAATCCGTATTTGCT (site CTCTGCACTAG)”, the “recombinant UMI read abundance (log10)” value worked out at 0.

“CTCTTCACATGGACCGGTTTTCCCGGTAATCCGTATTTGCT (site CTCTTCACTAG)”: the “recombinant UMI read abundance (log10)” value worked out at 2.46.

Turning to “CTCTTCTCATGGACCGGTTTTCCCGGTAATCCGTATTTGGG (site CACTTCTCTCC)”, the “recombinant UMI read abundance (log10)” value was 0.

As to “CTCTTCTCATGGACCGGTTTTCCCGGTAATCCGTATTTGGG (site CCCTTCTCTCC)”, the “recombinant UMI read abundance (log10)” value was 0.0128.

As for “CTCTTCTCATGGACCGGTTTTCCCGGTAATCCGTATTTGGG (site CGCTTCTCTCC)”, the “recombinant UMI read abundance (log10)” value was 0.014.

For “CTCTTCTCATGGACCGGTTTTCCCGGTAATCCGTATTTGGG (site CTCTTCTCTCC)”, the “recombinant UMI read abundance (log10)” value was found to be 0.

For the sequence “CTCTTGGCATGGACCGGTTTTCCCGGTAATCCGTATTTGAA (site CTCTTGGCTTT)”, the “recombinant UMI read abundance (log10)” value amounted to 1.08.

Take “CTCTTTGCATGGACCGGTTTTCCCGGTAATCCGTATTTGAC (site CTCTTTGCTGT)”: the “recombinant UMI read abundance (log10)” value came to 0.503.

“CTGAACCCATGGACCGGTTTTCCCGGTAATCCGTATTTGTT (site CGGAATCCTAA)”: the “recombinant UMI read abundance (log10)” value is 0.0138.

Consider “CTGAACCCATGGACCGGTTTTCCCGGTAATCCGTATTTGTT (site CTGAACCCTAA)”, for which the “recombinant UMI read abundance (log10)” value was 0.285.

Consider “CTGAACTCATGGACCGGTTTTCCCGGTAATCCGTATTTGCG (site CTGAACTCTCG)”, for which the “recombinant UMI read abundance (log10)” value came to 2.99.

Take “CTGAATCCATGGACCGGTTTTCCCGGTAATCCGTATTTGGT (site CGGAATCCTAA)”: the “recombinant UMI read abundance (log10)” value came to 0.0153.

On to “CTGAATCCATGGACCGGTTTTCCCGGTAATCCGTATTTGGT (site CTGAATCCTAC)”, for which the “recombinant UMI read abundance (log10)” value stood at 0.615.

Consider “CTGACATCATGGACCGGTTTTCCCGGTAATCCGTATTTGCT (site CAGACATCTAG)”, for which the “recombinant UMI read abundance (log10)” value was 1.06.

Take “CTGACATCATGGACCGGTTTTCCCGGTAATCCGTATTTGCT (site CCGACATCTAG)”: the “recombinant UMI read abundance (log10)” value came to 1.39.

In the case of “CTGACATCATGGACCGGTTTTCCCGGTAATCCGTATTTGCT (site CGGACATCTAG)”, the “recombinant UMI read abundance (log10)” value was 0.00554.

Regarding “CTGACATCATGGACCGGTTTTCCCGGTAATCCGTATTTGCT (site CTGACATCTAG)”, the “recombinant UMI read abundance (log10)” value turned out to be 2.47.

On to “CTGACGACATGGACCGGTTTTCCCGGTAATCCGTATTTGTT (site CTGACGACTAA)”, for which the “recombinant UMI read abundance (log10)” value worked out at 0.0946.

As to “CTGACTCCATGGACCGGTTTTCCCGGTAATCCGTATTTGTT (site CGGAATCCTAA)”, the “recombinant UMI read abundance (log10)” value worked out at 0.00356.

Regarding “CTGACTCCATGGACCGGTTTTCCCGGTAATCCGTATTTGTT (site CTGACTCCTAA)”, the “recombinant UMI read abundance (log10)” value was found to be 0.838.

For “CTGATCCCATGGACCGGTTTTCCCGGTAATCCGTATTTGTG (site CTGATCCCTCA)”, the “recombinant UMI read abundance (log10)” value is 0.794.

Regarding “CTGCAAGCATGGACCGGTTTTCCCGGTAATCCGTATTTGTA (site CTGCAAGCTTA)”, the “recombinant UMI read abundance (log10)” value came out at 1.8.

For the sequence “CTGCCATCATGGACCGGTTTTCCCGGTAATCCGTATTTGGT (site CTGCCATCTAC)”, the “recombinant UMI read abundance (log10)” value was 0.

“CTGCCCTCATGGACCGGTTTTCCCGGTAATCCGTATTTGTT (site CTGCCCTCTAA)”: the “recombinant UMI read abundance (log10)” value turned out to be 2.18.

On to “CTGCGTACATGGACCGGTTTTCCCGGTAATCCGTATTTGAT (site CTGCGTACTAT)”, for which the “recombinant UMI read abundance (log10)” value came out at 1.81.

In the case of “CTGCGTTCATGGACCGGTTTTCCCGGTAATCCGTATTTGAG (site CTGCGTTCTCT)”, the “recombinant UMI read abundance (log10)” value came out at 2.26.

In the case of “CTGCTAACATGGACCGGTTTTCCCGGTAATCCGTATTTGCT (site CTGCTAACTAG)”, the “recombinant UMI read abundance (log10)” value was 2.26.

Consider “CTGCTAACATGGACCGGTTTTCCCGGTAATCCGTATTTGCT (site CTGCTACCTAG)”, for which the “recombinant UMI read abundance (log10)” value worked out at 0.

In the case of “CTGCTAACATGGACCGGTTTTCCCGGTAATCCGTATTTGCT (site CTGCTAGCTAG)”, the “recombinant UMI read abundance (log10)” value came out at 0.313.

As to “CTGCTAACATGGACCGGTTTTCCCGGTAATCCGTATTTGCT (site CTGCTATCTAG)”, the “recombinant UMI read abundance (log10)” value came to 0.474.

For “CTGCTACCATGGACCGGTTTTCCCGGTAATCCGTATTTGCA (site CTGCTACCTAG)”, the “recombinant UMI read abundance (log10)” value was found to be 0.00394.

Turning to “CTGCTACCATGGACCGGTTTTCCCGGTAATCCGTATTTGCA (site CTGCTACCTCG)”, the “recombinant UMI read abundance (log10)” value worked out at 0.00238.

Turning to “CTGCTACCATGGACCGGTTTTCCCGGTAATCCGTATTTGCA (site CTGCTACCTGG)”, the “recombinant UMI read abundance (log10)” value amounted to 0.

With “CTGCTACCATGGACCGGTTTTCCCGGTAATCCGTATTTGCA (site CTGCTACCTTG)”, the “recombinant UMI read abundance (log10)” value was 0.

Regarding “CTGCTACCATGGACCGGTTTTCCCGGTAATCCGTATTTGGG (site CTGCTACCTCC)”, the “recombinant UMI read abundance (log10)” value is 0.0335.

For the sequence “CTGCTACCATGGACCGGTTTTCCCGGTAATCCGTATTTGGT (site CTGCTACCTAA)”, the “recombinant UMI read abundance (log10)” value worked out at 0.00859.

On to “CTGCTACCATGGACCGGTTTTCCCGGTAATCCGTATTTGGT (site CTGCTACCTAC)”, for which the “recombinant UMI read abundance (log10)” value amounted to 0.00854.

Take “CTGCTACCATGGACCGGTTTTCCCGGTAATCCGTATTTGGT (site CTGCTACCTAG)”: the “recombinant UMI read abundance (log10)” value came to 0.

For “CTGCTACCATGGACCGGTTTTCCCGGTAATCCGTATTTGGT (site CTGCTACCTAT)”, the “recombinant UMI read abundance (log10)” value worked out at 0.00703.

For the sequence “CTGCTGACATGGACCGGTTTTCCCGGTAATCCGTATTTGAT (site CTGCTGACTAT)”, the “recombinant UMI read abundance (log10)” value amounted to 2.13.

With “CTGCTTCCATGGACCGGTTTTCCCGGTAATCCGTATTTGGT (site CTGCTTCCTAC)”, the “recombinant UMI read abundance (log10)” value came out at 0.0707.

On to “CTGGAAACATGGACCGGTTTTCCCGGTAATCCGTATTTGAA (site CTGGAAACTTA)”, for which the “recombinant UMI read abundance (log10)” value was 0.0938.

In the case of “CTGGAAACATGGACCGGTTTTCCCGGTAATCCGTATTTGAA (site CTGGAAACTTC)”, the “recombinant UMI read abundance (log10)” value worked out at 0.988.

Turning to “CTGGAAACATGGACCGGTTTTCCCGGTAATCCGTATTTGAA (site CTGGAAACTTG)”, the “recombinant UMI read abundance (log10)” value was determined as 0.

For “CTGGAAACATGGACCGGTTTTCCCGGTAATCCGTATTTGAA (site CTGGAAACTTT)”, the “recombinant UMI read abundance (log10)” value worked out at 2.09.

For the sequence “CTGGAAACATGGACCGGTTTTCCCGGTAATCCGTATTTGCA (site ATGGAAACTTG)”, the “recombinant UMI read abundance (log10)” value is 0.

As for “CTGGAAACATGGACCGGTTTTCCCGGTAATCCGTATTTGCA (site CAGGAAACTTG)”, the “recombinant UMI read abundance (log10)” value stood at 1.85.

Take “CTGGAAACATGGACCGGTTTTCCCGGTAATCCGTATTTGCA (site CCGGAAACTTG)”: the “recombinant UMI read abundance (log10)” value worked out at 1.93.

As for “CTGGAAACATGGACCGGTTTTCCCGGTAATCCGTATTTGCA (site CGGGAAACTTG)”, the “recombinant UMI read abundance (log10)” value turned out to be 0.

Consider “CTGGAAACATGGACCGGTTTTCCCGGTAATCCGTATTTGCA (site CTAGAAACTTG)”, for which the “recombinant UMI read abundance (log10)” value came to 2.19.

Take “CTGGAAACATGGACCGGTTTTCCCGGTAATCCGTATTTGCA (site CTCGAAACTTG)”: the “recombinant UMI read abundance (log10)” value turned out to be 0.

“CTGGAAACATGGACCGGTTTTCCCGGTAATCCGTATTTGCA (site CTGAAAACTTG)”: the “recombinant UMI read abundance (log10)” value is 0.744.

“CTGGAAACATGGACCGGTTTTCCCGGTAATCCGTATTTGCA (site CTGCAAACTTG)”: the “recombinant UMI read abundance (log10)” value was 0.

As to “CTGGAAACATGGACCGGTTTTCCCGGTAATCCGTATTTGCA (site CTGGAAACTAG)”, the “recombinant UMI read abundance (log10)” value was 0.

For the sequence “CTGGAAACATGGACCGGTTTTCCCGGTAATCCGTATTTGCA (site CTGGAAACTCG)”, the “recombinant UMI read abundance (log10)” value was found to be 0.843.

With “CTGGAAACATGGACCGGTTTTCCCGGTAATCCGTATTTGCA (site CTGGAAACTGG)”, the “recombinant UMI read abundance (log10)” value stood at 0.

For the sequence “CTGGAAACATGGACCGGTTTTCCCGGTAATCCGTATTTGCA (site CTGGAAACTTA)”, the “recombinant UMI read abundance (log10)” value stood at 1.34.

With “CTGGAAACATGGACCGGTTTTCCCGGTAATCCGTATTTGCA (site CTGGAAACTTC)”, the “recombinant UMI read abundance (log10)” value came to 0.

As for “CTGGAAACATGGACCGGTTTTCCCGGTAATCCGTATTTGCA (site CTGGAAACTTG)”, the “recombinant UMI read abundance (log10)” value was determined as 2.2.

With “CTGGAAACATGGACCGGTTTTCCCGGTAATCCGTATTTGCA (site CTGGAAACTTT)”, the “recombinant UMI read abundance (log10)” value was found to be 2.16.

As for “CTGGAAACATGGACCGGTTTTCCCGGTAATCCGTATTTGCA (site CTGGAACCTTG)”, the “recombinant UMI read abundance (log10)” value amounted to 0.0058.

For the sequence “CTGGAAACATGGACCGGTTTTCCCGGTAATCCGTATTTGCA (site CTGGAAGCTTG)”, the “recombinant UMI read abundance (log10)” value turned out to be 1.51.
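Note: IS621 bridge recombinase in Escherichia coli cells against a fixed T5 target plasmid.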
